The results in this text go back to BindingDB's records for doi:10.1124/jpet.102.046128 (Bristol-Myers Squibb Pharmaceuticals Research Institute, 2003).

Where “and” joins values, the source holds several entries; their conditions need not be identical. Identical values can stand only once. Bounds are passed on as bounds.

For this assay, the target named is T1, Corticotropin-releasing factor receptor 1 (Homo sapiens, UniProt P34998).
T1 sequence (P34998 whole entry): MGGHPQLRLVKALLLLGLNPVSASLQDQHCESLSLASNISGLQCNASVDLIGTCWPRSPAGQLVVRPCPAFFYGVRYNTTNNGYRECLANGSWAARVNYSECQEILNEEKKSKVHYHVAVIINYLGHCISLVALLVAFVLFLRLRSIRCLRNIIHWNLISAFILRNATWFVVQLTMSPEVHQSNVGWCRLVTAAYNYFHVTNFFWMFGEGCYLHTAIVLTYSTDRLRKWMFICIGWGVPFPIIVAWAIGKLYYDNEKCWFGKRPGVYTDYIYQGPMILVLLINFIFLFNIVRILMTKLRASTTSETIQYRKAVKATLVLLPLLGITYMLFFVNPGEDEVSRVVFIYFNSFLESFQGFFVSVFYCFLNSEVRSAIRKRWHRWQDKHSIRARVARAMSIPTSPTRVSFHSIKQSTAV
For `CC[C@H](C)[C@H](NC(=O)[C@H](CC(=O)O)NC(=O)[C@H](CC(C)C)NC(=O)[C@H](CC(C)C)NC(=O)[C@H](CCCCN)NC(=O)[C@H](CCCN=C(N)N)NC(=O)[C@H](CC(N)=O)NC(=O)[C@H](CO)NC(=O)[C@H](Cc1cnc[nH]1)NC(=O)[C@H](C)NC(=O)[C@H](CCC(N)=O)NC(=O)[C@H](CCC(N)=O)NC(=O)[C@H](C)NC(=O)[C@H](CC(C)C)NC(=O)[C@H](CCC(N)=O)NC(=O)[C@H](CC(=O)O)NC(=O)[C@H](C)NC(=O)[C@H](CCCCN)NC(=O)[C@@H](NC(=O)[C@H](CCSC)NC(=O)[C@H](CCC(=O)O)NC(=O)[C@H](CC(C)C)NC(=O)[C@@H](NC(=O)[C@H](CCC(=O)O)NC(=O)[C@H](CCCN=C(N)N)NC(=O)[C@H](CC(C)C)NC(=O)[C@H](CC(C)C)NC(=O)[C@H](Cc1cnc[nH]1)NC(=O)[C@H](Cc1ccccc1)NC(=O)[C@@H](NC(=O)[C@H](CC(C)C)NC(=O)[C@H](CC(=O)O)NC(=O)[C@H](CC(C)C)NC(=O)[C@H](CO)NC(=O)[C@@H](NC(=O)[C@@H]1CCCN1C(=O)[C@@H]1CCCN1C(=O)[C@H](CCC(=O)O)NC(=O)[C@H](CCC(N)=O)NC(=O)[C@@H](N)CO)[C@@H](C)CC)[C@@H](C)O)C(C)C)[C@@H](C)O)C(=O)N[C@@H](C)C(N)=O` [NSC_0], the Ki was 3.3 nM and 23.1 nM.

Molecule “H-DLTFHLLREMLEMAKAEQEAEQAALNRLLLEEA-NH2 [NSC_0]” came in with a Ki above 1000 nM. For the molecule `CCC(COC)n1nnc2c(Nc3ccc(OC)cc3C)nc(C)cc21` (stereo unspecified), the Ki was 6.8 nM and 4.9 nM. With `CCCCN(CC)c1nc(C)nc2c1c(C)cn2-c1c(C)cc(C)cc1C`, the inhibition constant (Ki) is 1.2 nM and 0.4 nM. Molecule `COCC(COC)Nc1nc(C)nc2c(-c3ccc(Cl)cc3Cl)c(C)nn12` [DMP696] gave a Ki of 2.8 nM. In turn, `CCC(CC)Nc1cc(C)nc2c(-c3ccc(OC)cc3C)c(C)nn12` yielded a Ki of 0.4 nM.

As a reminder, the Ki is a measure of affinity in units of concentration, obtained from inhibition or displacement.
